The record followed here is US9535067B2, “DOT1L probes” (DANA-FARBER CANCER INSTITUTE, INC., priority 2013, dated 2017).

Each structure is given as a SMILES string.

The assay addresses DOT1L (Homo sapiens, UniProt Q8TEK3). The assay is described as follows: Differential Scanning Fluorimetry (DFS) Assay. Format: binding. From the text:
DFS enables assays suitable for high throughput screening assays for the effect of a small molecule on protein stability. DFS assays measures the thermal stability of a target protein and a subsequent increase in protein melting temperature upon binding of a ligand to the protein. Generally, specific binding will stabilize the protein. An exemplary protocol for performing a DFS for detecting the binding of (with or without a test compound) a fluorescence labeled probe to DOT1L, or an analog thereof, is as follows.
First, a protein solution comprising DOT1L or an active fragment thereof (e.g., DOT1L SET domain) is prepared in a suitable buffer at a desired concentration (e.g., 0.1 μM. 0.5 μM, 1.0 μM, 2.5 μM, 5.0 μM, 10 μM, 20 μM, or 100 μM). Then, a probe solution comprising a compound of formula (I), (le), (If) or (Ig) is prepared. A volume of the protein solution is combined with a volume of the probe solution in the presence or absence of a test compound. Binding of the probe to DOT1L or an active fragment thereof is then measured using a fluorometer.
(In general: DSF heats the sample and reads unfolding from a dye or from intrinsic fluorescence.)

Sequence of DOT1L (Q8TEK3 whole entry, species assumed): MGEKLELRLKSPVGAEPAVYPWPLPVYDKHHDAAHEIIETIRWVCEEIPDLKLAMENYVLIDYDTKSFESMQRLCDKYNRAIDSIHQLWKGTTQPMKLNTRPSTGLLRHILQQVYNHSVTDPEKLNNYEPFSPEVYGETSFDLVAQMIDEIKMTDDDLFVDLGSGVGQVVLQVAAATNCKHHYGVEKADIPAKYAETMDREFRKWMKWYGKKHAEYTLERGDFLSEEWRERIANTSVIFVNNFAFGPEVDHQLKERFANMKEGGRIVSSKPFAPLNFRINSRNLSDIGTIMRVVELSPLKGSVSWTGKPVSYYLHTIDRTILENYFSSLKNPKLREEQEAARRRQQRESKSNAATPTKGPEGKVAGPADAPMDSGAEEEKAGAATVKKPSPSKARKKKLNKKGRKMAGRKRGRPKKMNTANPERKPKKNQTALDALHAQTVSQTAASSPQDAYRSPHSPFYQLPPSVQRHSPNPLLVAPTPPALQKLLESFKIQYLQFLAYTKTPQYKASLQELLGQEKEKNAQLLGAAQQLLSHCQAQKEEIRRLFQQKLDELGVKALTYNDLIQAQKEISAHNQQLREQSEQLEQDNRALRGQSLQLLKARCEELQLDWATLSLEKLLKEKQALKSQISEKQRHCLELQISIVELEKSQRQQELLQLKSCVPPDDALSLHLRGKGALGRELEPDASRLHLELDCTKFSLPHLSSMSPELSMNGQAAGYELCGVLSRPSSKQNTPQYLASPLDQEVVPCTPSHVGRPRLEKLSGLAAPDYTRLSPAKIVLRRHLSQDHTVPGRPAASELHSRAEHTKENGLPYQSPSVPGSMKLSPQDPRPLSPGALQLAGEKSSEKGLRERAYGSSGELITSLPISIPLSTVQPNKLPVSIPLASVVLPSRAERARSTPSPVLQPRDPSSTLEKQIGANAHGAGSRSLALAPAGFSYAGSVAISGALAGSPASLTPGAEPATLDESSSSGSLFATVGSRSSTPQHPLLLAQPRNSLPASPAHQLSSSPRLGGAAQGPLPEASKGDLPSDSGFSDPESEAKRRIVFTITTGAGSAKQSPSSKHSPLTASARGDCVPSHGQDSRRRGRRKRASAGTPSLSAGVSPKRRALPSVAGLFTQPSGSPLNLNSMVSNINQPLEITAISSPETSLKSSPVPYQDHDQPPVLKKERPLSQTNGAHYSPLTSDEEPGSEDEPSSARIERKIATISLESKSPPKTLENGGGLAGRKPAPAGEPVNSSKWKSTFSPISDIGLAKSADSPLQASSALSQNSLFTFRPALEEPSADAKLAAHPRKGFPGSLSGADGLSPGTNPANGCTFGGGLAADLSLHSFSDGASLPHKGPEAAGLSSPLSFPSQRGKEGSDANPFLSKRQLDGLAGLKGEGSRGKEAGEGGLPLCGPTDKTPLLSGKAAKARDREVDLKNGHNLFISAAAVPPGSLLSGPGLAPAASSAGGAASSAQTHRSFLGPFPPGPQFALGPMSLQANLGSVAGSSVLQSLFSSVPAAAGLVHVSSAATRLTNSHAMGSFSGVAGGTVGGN

For the molecule `CC(C)N(CCCNC(=O)Nc1ccc(C(C)(C)C)cc1)C[C@H]1O[C@@H](n2cnc3c(NCCCC(=O)NCCCOCCOCCOCCCNC(=O)CCCC[C@@H]4SC[C@@H]5NC(=O)N[C@@H]54)ncnc32)[C@H](O)[C@@H]1O` [JQPROB2B], the “binding effect / binding affinity against DOT1L (thermal stabilisation, FIG. 1)” value was “reasonable binding affinity”.
